From patent US20260364072A1, “METHODS FOR PROMOTING EXPANSION OF HUMAN CD34+ CELLS IN VIVO AND FOR PROMOTING NEURAL REGENERATION” (THE REGENTS OF THE UNIVERSITY OF CALIFORNIA, priority 2023, published 2026)

How the values were obtained:
[1] = Rabbit single-dose toxicokinetic study; type: in vivo, New Zealand white rabbits; conditions: IV bolus
Description: Pre-IND PD and toxicokinetic (TK) studies (FIG. 4D) were enabled by scalable Rebecsinib synthesis^34 and development of an optimized formulation for in vivo biodistribution (5% w/v EtOH, 5% w/v Kolliphor HS15 in 0.9% Sodium Chloride). In PK studies, Rebecsinib was detectable in rat, rabbit, and non-human primate (NHP) plasma following IV bolus administration. In rat TK studies, Rebecsinib was quantifiable up to 1-hour post-dose at 1 mg/kg and up to 4 hours post-dose at 3, 5, and 8 mg/kg (FIG. 4E). […] Rebecsinib T1/2 values were 0.342, 0.447, 0.313, and 0.530 hours at 1, 3, 5, and 8 mg/kg, respectively. […] Following 3, 10, and 20 mg/kg boluses, Rebecsinib was quantifiable in plasma 1 hour post-dose and could be detected up to 8 hours post-dosing with 40 mg/kg (FIG. 4F). […] Following 3, 10, 15, and 20 mg/kg of Rebecsinib, quantifiable plasma concentrations of Rebecsinib were observed through 8 hrs post-dose (FIG. 4G).
(FIG. 29D) Schematic diagram outlining multispecies toxicokinetic (TK) and pharmacodynamic studies in mammalian species treated in vivo with a single dose of Rebecsinib. Toxicokinetic analyses were performed in rats (n=6 per sex, per group), rabbits (n=2 per sex, per group), and non-human primates (NHPs, n=1 per sex, per group) and pharmacodynamic splice isoform quantification studies were performed in peripheral blood mononuclear cells (PBMCs) from NHP.
(FIG. 29E, FIG. 29F) For toxicokinetic analyses, rats (FIG. 29E) and rabbits (FIG. 29F) were given a single injection of Rebecsinib at 1-40 mg/kg, or vehicle control, and blood samples were drawn at regular intervals to determine plasma concentrations of the compound over 8 hr after treatment.
Single-dose TK studies were performed in Sprague Dawley rats (Charles River Labs, South San Francisco, CA), New Zealand white rabbits (BASi/Inotiv, West Lafayette, IN), and cynomolgus monkeys (BASi/Inotiv). Rat and rabbit studies included toxicology analyses, quantification of plasma levels of Rebecsinib, and necropsies to evaluate organ integrity after treatment. For NHP studies, health and ophthalmological evaluations were performed before and after dosing with Rebecsinib, and blood samples were collected for quantification of plasma levels of Rebecsinib and biomarker studies in PBMCs from treated and control animals. All monkeys were returned to the animal colony after the end of the observation period. Toxicokinetic values including mean plasma concentrations and t1/2 values were calculated according to CRO-approved protocols (Charles River and BASi).

KG-1a AML cells = assay: KG-1a cell viability by flow cytometry; type: cell-based, human; conditions: 24 hr
Excerpt: (FIG. 29A) Quantification of cell viability (left panel) and splicing modulation (RFP/GFP ratios, right panel) by flow cytometry analyses of the human AML cell line (KG-1a) stably transduced with a lentiviral dual-fluorescence splicing reporter vector and treated with increasing concentrations of Rebecsinib.
For generation of stably transduced splicing reporter cell lines, a previously described splicing reporter construct^31 was cloned into a lentiviral vector backbone.^52 KG-1a cells were transduced with the dual-fluorescent lentiviral splicing reporter vector, treated with various concentrations of Rebecsinib (3-fold serial dilutions from 3 μM to 4 nM) for 24 hr, washed followed by DAPI staining, and analyzed by flow cytometry for cell viability and RFP/GFP fluorescence intensity. Results were from duplicate wells of each condition. Viability of cells treated with DMSO (0.5% final concentration) was set as 100%. Nonlinear regression curve fit analysis was carried out using Prism software (GraphPad) to determine ECso values for viability and mean fluorescence intensity (MFI) of RFP and GFP.

ADAR1p150 = ADAR1p150 protein by intracellular flow cytometry in high-risk MF samples; type: cell-based, human; conditions: 72 hr
Description: (FIG. 28C) Flow cytometry-based quantification of ADAR1 p150 protein expression in high-risk MF samples after in vitro transduction of primary CD34^+ cells with ADAR1 nanoluc-GFP reporter or vector control (pCDH) followed by treatment with vehicle control (DMSO) or Rebecsinib (72 hr).
Flow cytometry for stem and progenitor cell surface antibody staining was performed as previously described.^14 For phospho-flow, a subset of samples was fixed and permeabilized, then blocked and stained with APC-conjugated ADAR1p150 antibody (cat ab269444, 1:25) and pSTAT3 APC (cat 17-9033-42, 1:10) (Table S2). Fractions were analyzed with the BD LSR FORTESSA™ (Sanford Consortium for Regenerative Medicine Stem Cell Core) and FLOWJO™ software (TreeStar, Ashland, OR).

[2] = system: human CD45+ADAR1-GFP+ cells and CD45+CD3+ADAR1-GFP+ cells; assay: aNBM SAK148 PDX mice, flow cytometry; type: in vivo, human cells in NSG-SGM3 mice; conditions: 10 mg/kg, IV, BIW×2
Description: Aged normal bone marrow (aNBM) PDX mouse models SAK148, which were established with 80-100K ADAR1-reporter transduced CD34+ cells by IV injection into NSG-SGM3 mice at the age of 5-6 weeks. When the models were ready, the mice were treated with either vehicle or rebecsinib (10 mg/kg, IV, BIW×2). The mice were sacrificed upon completion of the dosing plan, and single cells from PB, SP, and BM were collected and stained with mAbs for CD45, CD3, CD14, and CD19.

human CD34+ cells = assay: Aged normal bone marrow CD34+ engrafted NSG-SGM3 mice, flow cytometry of PB, SP, BM; type: in vivo, human cells in NSG-SGM3 mice; conditions: 10 mg/kg, intravenously, twice a week for 2 weeks
Excerpt: Here, we established humanized mouse models using CD34^+ stem cells isolated from the peripheral blood of adult secondary AML (sAML) patients or bone marrow of normal-aged donors (63-79 years old).
FIG. 1: Rebecsinib treatment promotes human CD34^+ cells and spares CD45^+ cells Aged normal bone marrow (BM) samples were provided by Scripps Clinic La Jolla, CA. Normal human CD34^+ cells were freshly isolated with Microbeads (Miltenyi Biotech) and subsequently transduced with the ADAR1-NanoLuc reporter for 48 hours. Adult NSG-SGM3 mice (4-6 weeks) were intravenously transplanted with 100K ADAR1-NanoLuc reporter transduced CD34^+ cells. The mice were screened using the IVIS 200 imaging system and staining of peripheral blood with human CD45 monoclonal antibody. Mice with human CD45^+ cells >1% were included in the treatment cohort receiving Rebecsinib at a dose of 10 mg/kg, intravenously, twice a week for 2 weeks, with a total of 5 doses. After treatment, mice were sacrificed, and single cells were obtained from peripheral blood (PB), bone marrow (BM), and spleen (SP) for further analysis. A. IVIS 200 images of NSG-SGM3 mice intravenously transplanted with ADAR1-NanoLuc reporter transduced normal human CD34^+ cells at 18 weeks after transplantation. B. Flow cytometry gating strategies showing positive and negative controls. C.

CC[C@H](OC)[C@@H](C)[C@H]1O[C@@H]1[C@@H](O)[C@H](C)/C=C/C=C(\C)[C@H]1OC(=O)C[C@H](O)CC[C@@](C)(O)[C@@H](OC(C)=O)/C=C/[C@@H]1C [Rebecsinib]
time quantifiable in plasma post-dose ([1]; 3 mg/kg): 1 h | time quantifiable in plasma post-dose ([1]; 10 mg/kg): 1 h | time quantifiable in plasma post-dose ([1]; 20 mg/kg): 1 h | last time detected in plasma post-dosing ([1]; 40 mg/kg): up to 8 hours | half-life ([1]; plasma, read-out: plasma t1/2): 7.2 to 53.4 min | KG-1a AML cell survival (KG-1a AML cells): impaired CD34^+ KG-1a AML cell survival | IC50 (KG-1a AML cells; Homo sapiens, CD34+ KG-1a AML cell survival and RFP to GFP reporter expression): ~100 nM | ADAR1p150 protein expression (ADAR1p150): reduced ADAR1p150 protein expression | CD45+CD3+GFP+ cells in PB, SP, and BM [2]: spares the cell populations | CD45+GFP+ cells in PB, SP, and BM [2]: spares the cell populations | human CD45+ cells and differentiated cells (CD14+, CD3+, CD19+) (human CD34+ cells): preserves human CD45^+ cells and differentiated cells, including CD14^+ myeloid cells, and lymphoid cells such as CD3^+ T and CD19^+ B cells | human CD34+ cells in BM (human CD34+ cells; bone marrow, p=0.046, Student's t-test): significant CD34^+ increase | human CD34+ cells in PB (human CD34+ cells; peripheral blood): increased levels of human CD34^+ cells | human CD34+ cells in SP (human CD34+ cells; spleen): increased levels of human CD34^+ cells
